{"source": "patent US12667605B2", "about": "“Pharmaceutical composition for oral administration of a GLP-1 receptor agonist” (priority 2021, dated 2026)", "type_in_all_cases": "in vitro ADME", "key": {"pepsin [1]": {"target": "T1, pepsin (Sus scrofa, UniProt P00791)", "T1 sequence (P00791 60-385)": "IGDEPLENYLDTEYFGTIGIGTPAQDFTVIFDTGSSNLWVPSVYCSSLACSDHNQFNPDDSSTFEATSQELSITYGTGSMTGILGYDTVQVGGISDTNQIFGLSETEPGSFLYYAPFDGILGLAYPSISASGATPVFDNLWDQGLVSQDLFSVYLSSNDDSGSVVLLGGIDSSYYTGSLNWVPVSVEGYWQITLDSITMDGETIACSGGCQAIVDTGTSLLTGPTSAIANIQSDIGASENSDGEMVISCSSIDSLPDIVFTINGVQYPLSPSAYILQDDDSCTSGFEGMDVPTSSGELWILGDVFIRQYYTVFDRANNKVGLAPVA", "assay": "Protection of semaglutide under gastric conditions reproduced in vitro, with pepsin (Example 2, UHPLC-UV)", "conditions": "for Semaglutide residual content (%): simulated gastric medium at pH 1.2 with pepsin (3.2 mg/ml), 0.05 mg/ml semaglutide, 37° C.", "method": "(§1) The purpose of this test is to show the gastric stability of semaglutide in a composition according to the invention. • Step 1) The tablet obtained in Example 1A was dissolved in 50 mL of drinking water in order to obtain a buffered solution. • Step 2) The simulated gastric medium was prepared with hydrochloric acid (0.2 N HCl), adjusting the pH to 1.2. • Step 3) The buffered solution obtained in step 1) was mixed with 50 ml of simulated gastric medium, in order to obtain a final solution of 100 ml with 0.1 N HCL. • Step 4) Semaglutide was added to the solution obtained in step 3), in is order to obtain a final concentration of semaglutide of 0.05 mg/ml. • Step 5) Pepsin was added to the solution obtained in step 4) at a final concentration of 3.2 mg/ml or without addition of pepsin (without pepsin), and the solution obtained was kept under constant stirring at 37° C. for 2 hours.\n(§2) The semaglutide assay was performed by ultra-high performance liquid chromatography (UHPLC) coupled to an ultraviolet (UV) detector using an external standard calibration. The residual semaglutide content was calculated by measuring the semaglutide content at time t relative to the initial semaglutide content. The result is a ratio expressed in percent (%). The residual content of semaglutide corresponds to the protection percentage of semaglutide."}, "[2]": {"assay": "Stability of semaglutide in simulated gastric medium at pH 1.2 without pepsin (Example 2, UHPLC-UV)", "conditions": "for Semaglutide residual content (%): simulated gastric medium at pH 1.2 without pepsin, 0.05 mg/ml semaglutide, 37° C.", "method": "as §1, §2"}, "pepsin [3]": {"target": "T1, pepsin", "assay": "Protection of semaglutide compared to Rybelsus under gastric conditions reproduced in vitro, with pepsin (Example 4, HPLC)", "conditions": "buffered solution; simulated gastric medium pH 1.2 with pepsin (3.2 mg/mL); 0.05 mg/ml of semaglutide; T = 2 h; 37° C.", "method": "(§3) The gastro-resistance tests with semaglutide were carried out at a concentration of 0.05 mg/mL (5 mg of semaglutide in final 100 mL). The simulated gastric medium was prepared following the same protocol as that described in Example 3.\n(§4) The product Rybelsus® comprises Semaglutide, Sodium Salcaprozate (SNAC), Povidone, Microcrystalline Cellulose, and Magnesium Stearate. • Step 1) A 14 mg Rybelsus® tablet was used for the comparative tests and was dissolved in 50 mL of drinking water for thirty minutes with stirring. The final semaglutide concentration was 0.28 mg/mL. • Step 2) An effervescent tablet (according to Example 1A) was added or not to the solution obtained in step 1. After cessation of effervescence, 50 ml of 0.2 N HCL at pH 1.2 were added to obtain a final solution of 100 ml of 0.1 N HCL, which corresponds to the simulated gastric environment. The final concentration of semaglutide is 14 mg per 100 mL. • Step 3) The pepsin was then added or not to the solution obtained in step 2, at the conventional dose of 3.2 mg/ml. The test was carried out for 2 hours at a temperature of 37° C.\nThe semaglutide content was specifically assayed by high performance liquid chromatography (HPLC). The residual content was calculated by measuring the semaglutide content at time t relative to the initial semaglutide content. The result is a ratio expressed in percent (%). […]"}, "[4]": {"assay": "Stability of semaglutide compared to Rybelsus in simulated gastric medium pH 1.2 without pepsin (Example 4, HPLC)", "conditions": "for Residual semaglutide content in percent (%): buffered solution, simulated gastric medium pH 1.2 without pepsin, 0.05 mg/mL of semaglutide, 37° C.", "method": "as §3, §4\nThe semaglutide content was specifically assayed by high performance liquid chromatography (HPLC). The residual content was calculated by measuring the semaglutide content at time t relative to the initial semaglutide content. The result is a ratio expressed in percent (%). The residual content of semaglutide corresponds to the percentage of protection of the semaglutide."}}, "data": [{"smiles": "CC[C@H](C)[C@H](NC(=O)[C@H](Cc1ccccc1)NC(=O)[C@H](CCC(=O)O)NC(=O)[C@H](CCCCNC(=O)COCCOCCNC(=O)COCCOCCNC(=O)CC[C@H](NC(=O)CCCCCCCCCCCCCCCCC(=O)O)C(=O)O)NC(=O)[C@H](C)NC(=O)[C@H](C)NC(=O)[C@H](CCC(N)=O)NC(=O)CNC(=O)[C@H](CCC(=O)O)NC(=O)[C@H](CC(C)C)NC(=O)[C@H](Cc1ccc(O)cc1)NC(=O)[C@H](CO)NC(=O)[C@H](CO)NC(=O)[C@@H](NC(=O)[C@H](CC(=O)O)NC(=O)[C@H](CO)NC(=O)[C@@H](NC(=O)[C@H](Cc1ccccc1)NC(=O)[C@@H](NC(=O)CNC(=O)[C@H](CCC(=O)O)NC(=O)C(C)(C)NC(=O)[C@@H](N)Cc1cnc[nH]1)[C@@H](C)O)[C@@H](C)O)C(C)C)C(=O)N[C@@H](C)C(=O)N[C@@H](Cc1c[nH]c2ccccc12)C(=O)N[C@@H](CC(C)C)C(=O)N[C@H](C(=O)N[C@@H](CCCNC(=N)N)C(=O)NCC(=O)N[C@@H](CCCNC(=N)N)C(=O)NCC(=O)O)C(C)C", "note": "[semaglutide]", "values": [{"measurement": "residual content", "setting": "pepsin [1]; acid medium with pepsin and without a buffer system, time not given", "result": 0, "unit": "%"}, {"measurement": "Semaglutide residual content (%)", "setting": "pepsin [1]; with the buffered solution (Example 1A tablet)", "result": 104.6, "unit": "%"}, {"measurement": "Semaglutide residual content (%)", "setting": "pepsin [1]; without buffer system", "result": 0, "unit": "%"}, {"measurement": "degradation of semaglutide (in words)", "setting": "[2]; formulated with a buffer system, after 2 hours, without pepsin", "result": "not degraded"}, {"measurement": "Semaglutide residual content (%)", "setting": "[2]; with the buffered solution (Example 1A tablet), T 0 h", "result": 103.5, "unit": "%"}, {"measurement": "Semaglutide residual content (%)", "setting": "[2]; with the buffered solution (Example 1A tablet), T 2 h", "result": 104.1, "unit": "%"}, {"measurement": "Semaglutide residual content (%)", "setting": "[2]; without buffer system, T 0 h", "result": 100, "unit": "%"}, {"measurement": "Residual semaglutide content in percent (%)", "setting": "pepsin [3]", "result": 105.2, "unit": "%"}, {"measurement": "Residual semaglutide content in percent (%)", "setting": "[4]; T = 1 h", "result": 103.5, "unit": "%"}, {"measurement": "Residual semaglutide content in percent (%)", "setting": "[4]; T = 2 h", "result": 104.1, "unit": "%"}, {"measurement": "stability of semaglutide (in words)", "setting": "[4]; in the absence of pepsin, in the presence of the buffer system", "result": "stable"}]}]}
